The values below come from patent publication US20220062190A1, “Therapeutic Agent and Nutraceutical Compositions And Methods for Making and Using Same” (NUREVELATION, LLC, priority 2020, published 2022).

Counter-ions that a name gives are not always drawn.

A word on the LogP: it is the decadic logarithm of the partition coefficient of the neutral form, usually between octanol and water.

Test system in one series: not listed separately
Description: Solubility in water when preparing mass spectrometry standards. As to conditions: standard and batch prepared in methanol instead. In kind it is physicochemical. Here is the method:
Samples for mass spectrometry were weighed and then concentrated to 5 mg/mL. The samples were further diluted to 0.1 mg/mL for analysis in 50/50 water to methanol. Standards were prepared to 20 μg/mL in optima grade methanol or water. The following standards were prepared in water at 20 μg/mL: bethanechol chloride, chloroquine diphosphate, cyclobenzaprine hydrochloride, D-penicillamine, ondansetron hydrochloride, venlafaxine hydrochloride, and donepezil hydrochloride.
With `Cc1nc2n(c(=O)c1CCN1CCC(c3noc4cc(F)ccc34)CC1)CCCC2` [Risperidone], the solubility in water entry was “insolubility in water”.

Test system in the next series: not given
Experiment: not given
As to conditions: octanol/water; value not marked predicted; source not stated; cited from earlier work.
`NCC(CC(=O)O)c1ccc(Cl)cc1` (centres unmarked) [Baclofen]: the LogP is given as 1.3.

As to `CC(C[N+](C)(C)C)OC(N)=O` (centres unmarked) [Bethanechol chloride], the lipophilicity (LogP) is given as −4.1.

Turning to `COc1ccccc1OCCNCC(O)COc1cccc2[nH]c3ccccc3c12` (centres unmarked) [Carvedilol], the LogP was 3.8.

Regarding `CN(C)CCC=C1c2ccccc2C=Cc2ccccc21` [Cyclobenzaprine hydrochloride], the LogP is on record as 5.2.

Take `CC(C)(S)[C@@H](N)C(=O)O` [D-penicillamine]: the LogP is on record as −1.78.

With `CC1=NS(=O)(=O)c2cc(Cl)ccc2N1` [Diazoxide], the lipophilicity (LogP) is recorded as 1.20.

For `C[C@H]1c2cccc(O)c2C(=O)C2=C(O)[C@]3(O)C(=O)C(C(N)=O)=C(O)[C@@H](N(C)C)[C@@H]3[C@@H](O)[C@@H]21` [Doxycycline], the LogP is 0.63.

With `C#C[C@]1(O)CC[C@H]2[C@@H]3CCc4cc(O)ccc4[C@H]3CC[C@@]21C` [Ethinylestradiol], the LogP is 3.67.

As to `COc1ccccc1OCC(O)CO` (centres unmarked) [Guaifenesin], the LogP is reported as 1.39.

Regarding `CCCCC1=NC2(CCCC2)C(=O)N1Cc1ccc(-c2ccccc2-c2nnn[nH]2)cc1` [Irbesartan], the LogP is 4.5.

Take `Nc1nnc(-c2cccc(Cl)c2Cl)c(N)n1` [Lamotrigine]: the LogP is reported as 1.93.

In the case of `N[C@@H](Cc1cc(I)c(Oc2cc(I)c(O)c(I)c2)c(I)c1)C(=O)O` [Levothyroxine], the LogP was 4.0.

As to `NCCCC[C@H](N[C@@H](CCc1ccccc1)C(=O)O)C(=O)N1CCC[C@H]1C(=O)O` [Lisinopril dihydrate], the log partition coefficient (LogP) is −1.01.

For the compound `CC[C@H](C)C(=O)O[C@H]1C[C@@H](C)C=C2C=C[C@H](C)[C@H](CC[C@@H]3C[C@@H](O)CC(=O)O3)[C@H]21` [Lovaststin], the LogP is listed as 4.08.

For the compound `Cc1cnc(NC(=O)C2=C(O)c3ccccc3S(=O)(=O)N2C)s1` [Meloxicam], the LogP is 0.1.

Consider `Nc1ccc(O)c(C(=O)O)c1` [Mesalamine], for which the LogP is given as −0.29.

For the compound `NC(=O)c1cnccn1` [Pyrazinamide], the LogP was −0.60.

As to `Cc1ncc(CO)c(CO)c1O` [Pyridoxine], the LogP is given as −0.77.

Take `CNC(=C[N+](=O)[O-])NCCSCc1ccc(CN(C)C)o1` [Ranitidine]: the LogP is 0.2.

Regarding `CC(=O)S[C@@H]1CC2=CC(=O)CC[C@]2(C)[C@H]2CC[C@@]3(C)[C@@H](CC[C@@]34CCC(=O)O4)[C@H]12` [Spironolactone], the log partition coefficient (LogP) is given as 2.78.

Another series deals with movement disorder due to antipsychotics known as dystonia and parkinsonism.
Experiment: not given
As to conditions: use column of Table 1A; cited from earlier work.
In the case of `CN1[C@@H]2CC[C@H]1C[C@@H](OC(c1ccccc1)c1ccccc1)C2` [Benztropine], the duration of benefits was not above 10 h and the “time until benefits are seen” value was not above 2 h.
